{"source": "paper PMC7719179", "about": "“Small molecule inhibition of Dynamin-dependent endocytosis targets multiple niche signals and impairs leukemia stem cells” (Nature Communications, 2020)", "key": {"[1]": {"system": "Ba/F3-IL7R^Stat5-CA cells", "assay": "pStat5 and proliferation of Ba/F3-IL7R^Stat5-CA cells with IL-7 or doxycycline", "type": "cell-based, murine", "conditions": "relative to data from day 0, reported as 1, groups +IL-7 -DOX or -IL-7 +DOX", "method": "Ba/F3 cells (kindly provided by a person from The Walter and Eliza Hall Institute of Medical Research) were infected with pMIG-R1/Il7r retroviral supernatants produced in 293T cells, and transduced cells were sorted with a BD Influx (BD Australia) and selected by culture in medium supplemented with 5 ng/mL rmIL-7 (#217-17, Pepro Tech, Rocky Hill NJ, USA) for 7 days. Ba/F3 cells stably expressing Il7r (Ba/F3-IL7R) were infected with TxTCPVIR-Stat5-CA retroviral supernatants produced in 293T. Cell sorting was performed with a BD Influx and transduced cells were treated with doxycycline for 48 h to induce the expression of the Stat5-CA-T2A-mCherry fusion protein. […]\n(red) assessed by flow cytometry (top) and Western blots (bottom). MFI ± SD of n=2 technical replicates, performed in 2 independent experiments (***P<0.001 compared to unstimulated cells ; white bar). For Western blots, Actin was used as a loading control. f, Proliferation of BaF3-IL7R Stat5-CA cells in absence (+IL-7 –DOX; grey) or presence (-IL-7 +DOX; red) of doxycycline. Fold expansion was calculated from the number of cells initially put into culture at day 0. […]"}, "[2]": {"system": "IL-7 signalling (pStat5) in Ba/F3-IL7R cells", "assay": "IL-7-induced phospho-Stat5 in Ba/F3-IL7R cells (phosphoflow)", "type": "cell-based, murine", "conditions": "Ba/F3-IL7R cells; result in words", "method": "(§1) Ba/F3 cells (kindly provided by a person from The Walter and Eliza Hall Institute of Medical Research) were infected with pMIG-R1/Il7r retroviral supernatants produced in 293T cells, and transduced cells were sorted with a BD Influx (BD Australia) and selected by culture in medium supplemented with 5 ng/mL rmIL-7 (#217-17, Pepro Tech, Rocky Hill NJ, USA) for 7 days. Ba/F3 cells stably expressing Il7r (Ba/F3-IL7R) were infected with TxTCPVIR-Stat5-CA retroviral supernatants produced in 293T. Cell sorting was performed with a BD Influx and transduced cells were treated with doxycycline for 48 h to induce the expression of the Stat5-CA-T2A-mCherry fusion protein.\nPhosphoflow analysis was performed as previously described. Briefly, 2 × 10^6 cells stained for surface markers were subsequently resuspended into PBS 1× + 4% v/v paraformaldehyde and incubated for 10 min at 4 °C for fixation. Fixed cells were washed twice using PBS 1×, then resuspended in pre-chilled at −20 °C Perm Buffer III (BD Pharmingen) and incubated 30 min at 4 °C for permeabilization. Cells were washed twice using PBS 1× and incubated overnight at 4 °C in PBS 1× + 2% v/v fetal calf serum (FCS) with Cell Signalling purified antibodies (Genesearch Pty Ltd, Arundel QLD, Australia) against pSTAT5 (Tyr694; #9359), phospho-p38 MAPK (Thr180/Tyr182; #4511), phospho-p44/42 (Erk1/2; #9102), phospho-S6 (Ser235/236; #4856) and phospho-Akt (Ser473; #9271) or isotype control. For intracellular HES1 detection, cells stained for surface markers were subsequently fixed and permeabilized using the BD Cytofix/Cytoperm^TM Kit and incubated overnight at 4 °C in PBS 1× + 2% v/v FCS with a purified antibody against HES1 (D6PU; #11988, Cell Signalling) or isotype control. After staining with primary antibodies for phosphoflow or intracellular detection, cells were incubated in permeabilization buffer with donkey Alexa Fluor 488-conjugated anti-rabbit secondary antibody (A-21206, lot #1910751, Molecular Probes, Invitrogen) or goat Alexa Fluor 546-conjugated anti-rabbit secondary antibody (A-11035, lot #1904467, Molecular Probes, Invitrogen) for 1 h on ice, and washed twice in PBS 1×. Fluorescence-activated cell sorting (FACS) analysis was performed using LSRII and LSR Fortessa cytometers, following the gating strategies described in Supplementary Fig. 11. Cell sorting was performed with a FACSAria or BD Influx.\nFor in vitro IL-7 stimulation assays, cells were starved in serum-free DMEM at 37 °C, then incubated with either vehicle or Dynole 34-2 or Ruxolitinib (INCB018424; #S1378, Selleckchem), or DAPT (GSI-IX; #S2215, Selleckchem) resuspended in DMSO for 1 h. Thymocytes were subsequently stimulated with 25 ng/mL IL-7 at 37 °C for 20 min and washed twice using cold PBS 1×. Cells were incubated with 25 ng/mL Rat IgG (Sigma-Aldrich Pty Ltd, Castle Hill NSW, Australia) and with a PE-conjugated antibody for detection of IL-7R (CD127) for 1 h on ice, as described in the FACS analysis section. PE-conjugated isotype was used as negative control. Cells were washed twice, fixed and phosphoflow analysis performed as described in the FACS analysis section. The analysis was performed in triplicate and the mean fluorescence intensity (MFI) observed without stimulation was reported as 100%."}, "[3]": {"system": "DN3a thymocytes", "assay": "Relative viability and LC50 on DN3a thymocytes of WT, Lmo2^Tg, Lmo2^Tg;STAT5-CA^Tg and Lmo2^Tg;N1-ICD^Tg mice, 48 h", "conditions": "Lmo2Tg;STAT5-CATg", "method": "Pre-leukemic and leukemic thymocytes were purified by flow cytometry and co-cultured on GFP-positive OP9 and OP9-DL1 stromal cell lines, as described previously. Thymocytes were co-cultured in reconstituted alpha-MEM medium (#12318, Gibco, Grand Island NY, USA) supplemented with 20% FCS (#12318), HEPES 10 mM (#15630-080), sodium pyruvate 1 mM (#11360-070), β-mercaptoethanol 55 μM (#21985-023), Glutamax 2 mM (#15750-060), 1% Penicillin/Streptomycin (#15140-122), 5 ng/mL rmFLT-3 ligand (#250-31 L, Pepro Tech), 5 ng/mL rmIL-7 (#217-17, Pepro Tech) and 25 ng/mL rmSCF (#250-03, Pepro Tech). After 48 h of co-culture, thymocytes were counted and analysed by FACS. […]\nviability of wild-type (WT), Lmo2 Tg, Lmo2Tg;STAT5-CA Tg and Lmo2Tg;N1-ICD Tg DN3a thymocytes […]\nnormalized to cells treated with vehicle (%DMSO). Mean ± SEM of n=4 biological replicates. b, […]\nthymocytes from 6-week old wild-type (WT), Lmo2 Tg, Lmo2Tg;STAT5-CATg and Lmo2Tg ;N1-ICD Tg mice. Mean ± SD of n=4 biological replicates are shown. 2-way ANOVA with Tukey’s correction test; […]\n(1 picture or pasted object on this page, not shown here)\n*P<0.05, *** P<0.001 compared to WT; #P<0.05, ##P<0.01, ###P<0.001 compared to L mo2Tg. c, Levels of pStat5 (left) after stimulation with IL-7 , as well as Hes1 expression (right) after co-culture on OP9- […]\n(0.2 µM), Ruxolitinib (0.2 µM) and DAPT (0.1 µM). Unstimulated cells were used as negative controls (dashed line). Student’s t -test, ** P<0.01, *** P<0.001 compared to unstimulated cells. MFI ± SEM, 1-way ANOVA with Tukey’s correction test; **P<0.01, *** P<0.001 compared to vehicle. d, Clonogenic assay of normal murine hematopoietic stem and progenitor cells (HSPCs) cultured in the presence […]\n± SD, Student’s t -test ( n=4) **P<0.01 compared to vehicle. e, Relative viability of wild-type (WT), […]\n2 (0.2 µM), Ruxolitinib (0.2 µM) and DAPT (0.1 µM) for 48 hours. Viability was normalized to cells treated with vehicle (%DMSO, which was reported as 100). Mean ± SEM, 2-way ANOVA with Tukey’s correction test, **P<0.01, *** P<0.001 compared to vehicle."}, "[4]": {"system": "Ba/F3-IL7R^Stat5-CA cells", "assay": "Cytotoxic activity in IL-7-dependent and IL-7-independent Ba/F3-IL7R^Stat5-CA cells", "type": "cell-based, murine", "conditions": "for Survival (%) over survival at day 0, reported as 100%: Ba/F3-IL7R^Stat5-CA cells, dose = IC50 or LC50 of each drug", "description": "The doxycycline-inducible dual-colour TRMPVIR (TRE-dsRed-miR30/shRNA-PGK-Venus-IRES-rtTA3) retroviral vector[84] was kindly given by R. A. Dickins and was modified by replacing the dsRed-miR30/shRNA sequence by a T2A self-cleaving peptide[85] fusioned with the mCherry fluorescent protein (from TRIPZ, Addgene) inserted into the BamHI and EcoRI sites of the plasmid downstream of the TRE promoter to generate the TxTCPVIR (TRE-gene-T2A-mCherry-PGK-Venus-IRES-rtTA3) retroviral vector. Using standard cloning techniques, we inserted the full-length sequence of Stat5-CA from the pMig-R1 construct into the TxTCPVIR vector to generate the TxTCPVIR-Stat5-CA construct. All subcloned constructs were verified by DNA sequencing (Micromon, Monash University, Australia). Detailed cloning strategies, primers sequences and vectors are available on request.\nas §1\nFlow cytometry analyses were performed as previously described[10],[86] on single-cell suspensions stained using BD Pharmingen antibodies (BD Australia, North Ryde NSW, Australia) against mouse CD4 (RM4-5), CD8 (53-6.7), CD25 (PC61.5), CD44 (IM7), CD45.1 (A20), CD45.2 (104), Thy1.2 (53-2.1; #561616), TCRβ (H57-597), CD117 (ACK45), CD135 (A2F10.1), CD150 (TC15-12F12.2; #562373), B220 (RA3-6B2; #563708), CD3 (145-2C11; #563004), CD19 (ID3; #557655), Gr-1 (RB6-8C5; #563299 and #565033), CD11b (M1/70; #563015 and #560455), Ter119 (Ter119; #565523 and #557909), Sca-1 (D7; #558160) and an eBioscience antibody (eBioscience, Invitrogen) against mouse NOTCH1 (22E5). DN3 populations and IL-7R were stained using BioLegend antibodies (Australian Biosearch, Balcatta WA, Australia) against mouse CD28 (E18) and CD127 (A7R34), respectively. Apoptosis was measured using an antibody against AnnexinV (#556420, BD Australia) and the […] Sytox Blue (BD Australia) following the manufacturer’s protocol."}}, "note": "Several values for one entry are separate records, joined by “and”; a condition that tells them apart may be missing. Identical values can stand only once."}
{"compound": "IL-7", "values": [{"measurement": "Fold expansion", "setting": "[1]; 24 h", "result": "0.74 and 0.75 and 0.79 and 0.97 and 0.91 and 0.98"}, {"measurement": "Fold expansion", "setting": "[1]; 72 h", "result": "2.37 and 2.58 and 4.20 and 3.96 and 3.95 and 3.51"}, {"measurement": "Fold expansion", "setting": "[1]; 120 h", "result": "9.32 and 11.24 and 15.76 and 15.48 and 14.68 and 15.08"}]}
{"compound": "O=C(NN=Cc1cc(O)c(O)cc1O)c1cc2ccccc2cc1O", "note": "[Dyngo 4a, 3-Hydroxy-N’-[(2,4,5-trihydroxyphenyl)-methylidene]-naphthalene-2-carbohydrazide, reference compound]", "values": [{"measurement": "inhibition of IL-7 signalling as measured by loss of phospho-Stat5", "setting": "[2]", "result": "dose-dependent inhibition"}]}
{"compound": "CCCCCCCCNC(=O)/C(C#N)=C/c1cn(CCCN(C)C)c2ccccc12", "note": "[Dynole 34]", "values": [{"measurement": "Survival (% DMSO)", "setting": "[3]", "result": "50.05 % DMSO and 55.36 % DMSO and 37.5 % DMSO and 40.03 % DMSO"}]}
{"compound": "CC[C@]1(O)C[C@H]2CN(CCc3c([nH]c4ccccc34)[C@@](C(=O)OC)(c3cc4c(cc3OC)N(C=O)[C@H]3[C@@](O)(C(=O)OC)[C@H](OC(C)=O)[C@]5(CC)C=CCN6CC[C@]43[C@@H]65)C2)C1", "note": "[Vincristine]", "values": [{"measurement": "Survival (%) over survival at day 0, reported as 100%", "setting": "[4]; +IL-7 -DOX, 0 h", "result": "100.02% and 100.26% and 100.28% and 99.72% and 99.53% and 100.47%"}, {"measurement": "Survival (%) over survival at day 0, reported as 100%", "setting": "[4]; +IL-7 -DOX, 24 h", "result": "97.78% and 97.03% and 92.76% and 93.67% and 88.90% and 79.18%"}, {"measurement": "Survival (%) over survival at day 0, reported as 100%", "setting": "[4]; +IL-7 -DOX, 48 h", "result": "60.76% and 61.24% and 44.94% and 67.20% and 75.05% and 65.49%"}, {"measurement": "Survival (%) over survival at day 0, reported as 100%", "setting": "[4]; +IL-7 -DOX, 72 h", "result": "42.05% and 38.67% and 50.69% and 46.55% and 54.10% and 54.58%"}, {"measurement": "Survival (%) over survival at day 0, reported as 100%", "setting": "[4]; +IL-7 -DOX, 96 h", "result": "9.57% and 5.19% and 6.30%"}, {"measurement": "Survival (%) over survival at day 0, reported as 100%", "setting": "[4]; -IL-7 +DOX, 0 h", "result": "100.62% and 100.47% and 99.53% and 102.59% and 99.98% and 100.02%"}, {"measurement": "Survival (%) over survival at day 0, reported as 100%", "setting": "[4]; -IL-7 +DOX, 24 h", "result": "84.77% and 83.72% and 89.11% and 91.00% and 83.57% and 82.00%"}, {"measurement": "Survival (%) over survival at day 0, reported as 100%", "setting": "[4]; -IL-7 +DOX, 48 h", "result": "82.10% and 78.50% and 82.90% and 69.10% and 67.20% and 82.60%"}, {"measurement": "Survival (%) over survival at day 0, reported as 100%", "setting": "[4]; -IL-7 +DOX, 72 h", "result": "60.60% and 57.90% and 64.60% and 57.00% and 62.20% and 65.20%"}, {"measurement": "Survival (%) over survival at day 0, reported as 100%", "setting": "[4]; -IL-7 +DOX, 120 h", "result": "34.10% and 40.50% and 30.80% and 32.50% and 34.90% and 26.60%"}, {"measurement": "sensitivity of Ba/F3-IL7R^Stat5-CA cells with constitutive pStat5 (doxycycline)", "setting": "[4]; result in words", "result": "equally effective"}]}
{"compound": "O=C(N/N=C/c1ccc(O)c(O)c1)c1cc2ccccc2cc1O", "note": "[Dynasore, reference compound]", "values": [{"measurement": "inhibition of IL-7 signalling as measured by loss of phospho-Stat5", "setting": "[2]", "result": "dose-dependent inhibition"}]}
